# Experimental data reported in patent US20030138433A1, “Autologous adoptive immunotherapy with antigen-specific primed T cells or B cells to promote antigen-specific immune responses with an appropriate cytokine bias” (priority 1999, published 2003).
# What was measured:
# [1] = test system: Total splenic B cells from C3H, AKR, C3H.lpr and MRL.gld mice; assay: DNA content of total splenic B cells (saponin/propidium iodide flow cytometry); type: cell-based; conditions: B cells from lpr animals compared with normal animals
# Method: Total splenic B cells were isolated from C3H, AKR, C3H.lpr, and MRL.gld mice. The cells were cultured overnight, harvested, permeabilized in saponin, stained with propidium iodide (PI) which intercalates into DNA, and analyzed by flow cytometry. Because the majority of cells in these preparations are either resting or “growth arrested,” the predominant peak in the untreated samples is the G0/G1 peak (2N DNA).
# [2] = test system: Splenic B cells from AKR mice (resting, in vitro primed, in vivo activated); assay: Apoptotic death of splenic B cells scored by nucleosome-sized DNA fragments (densitometry); type: cell-based; conditions: 10 μM, primed and activated B cells
# Method: Splenic B cells from AKR mice were separated on a Percoll density gradient and two fractions were collected: small, high-density, resting B cells were obtained from the 1.079<ρ<1.085 g/ml interface and large in vivo activated B cells were collected at the BSS<ρ<1.066 g/ml interface. In vitro primed B cells were obtained by treating resting B cells with 16U recombinant IL-4 and by incubating them overnight on anti-Ig-coated plates. […] Apoptotic death was scored by quantitating the formation of nucleosome-sized DNA fragments by densitometry.
# [3] = test system: L1210 cells; assay: Methotrexate-induced cell death (flow cytometry, ethidium bromide, DNA fragments); type: cell-based, mouse (BALB/c-derived)
# Method: (§1) L1210 and L1210/DDP cells were treated overnight with 5×10^−7 M methotrexate. […] The forward scatter low populations took up ethidium bromide differentially. The L1210 cells took up a moderate amount of ethidium bromide whereas the L1210/DDP cells took up large amounts. […] This latter phenotype—loss in forward scatter and membrane permeability with no “DNA laddering”—is the hall mark of oncosis.
# (§2) L1210 and L1210/DDP cells were treated with a dose of methotrexate that produced moderate amounts of cell death. (Even though L1210/DDP is “methotrexate resistant”, the drug does induce cell death in the cultures; the surviving cells which grow out of the culture are responsible for the lines “drug resistant” appellation).
# [4] = test system: L1210/DDP cells; assay: as above; type: cell-based, mouse (BALB/c-derived)
# Method: as §1, §2
# [5] = test system: transgenic mice expressing a hen egg lysozyme (HEL)-specific T cell receptor (3A9) crossed with MHC class II transgenic mice; assay: In vivo antigen pulse of 3A9 x MHC class II transgenic crosses, spleen cell analysis; conditions: 100 μg, six days after injection
# Method: Mouse spleens were removed after sacrifice and placed into 4 ml PBS, 0.1% BSA in a petri dish. A single cell suspension was prepared using the frosted ends of two microscope slides. Cells were then transferred into a 15 ml tube. The cell suspension was underlayed with 2 ml Ficoll-paque and then centrifuged for 15 min. at 1,000×g. Lymphocytes at the interface were collected and washed 3× with ice-cold 15 ml PBS, 0.1% BSA. Cells were counted and resuspended to 1.6×10^7 viable cells per ml concentration, in RPMI 1640 25 mM HEPES, 50 μM 2-ME, 10% FBS, 1× L-glutamine, 1× sodium pyruvate, 1× nonessential amino acids.
# The FACScalibur, flow cytometer was calibrated using Becton-Dickinson calibration beads prior to each four color analysis run. Cells also were analyzed on a FACScan™ with CellQuest software (Becton Dickinson, San Jose, Calif.).
# Two different crosses between the mice carrying the different transgenes were generated. Transgenic mice expressing a hen egg lysozyme (HEL)-specific T cell receptor (3A9) were crossed with: (i) the transgenic mice expressing wild type MIIC class II on a null MHC class II background, and (ii) the transgenic mice expressing hybrid MHC class II-MCH class I molecules on a null MHC class II background.
# Mice, 4-8 weeks old, generated from the above-identified crosses were pulsed in vivo with an injection of 100 μg total of antigen (HEL). Six days after injenction, the cells from splenes were harvested, as described above, and analyzed. […] Additionally, the “tail” of MHC class II is not necessary for the proper loading and presentation of antigen.
# [6] = 3A9×wild type MHC class II on null background
molecule,measurement,setting,value
CC[C@H]1CN2CCc3cc(OC)c(OC)cc3[C@@H]2C[C@@H]1C[C@H]1NCCc2cc(OC)c(OC)cc21 [emetine],"DNA fragmentation, lpr vs normal B cells",[1],equally capable of fragmenting DNA
CC(C)NCC(O)c1ccc(O)c(O)c1 (stereo not drawn) [isoproterenol],induction of apoptosis,[2],induces apoptosis in all three populations
CN(Cc1cnc2nc(N)nc(N)c2n1)c1ccc(C(=O)N[C@@H](CCC(=O)O)C(=O)O)cc1 [methotrexate],mode of cell death,[3]; L1210,die by apoptosis
same,DNA fragments,"[3]; L1210, 5×10^−7 M overnight",produced a ladder of nucleosome sized fragments indicative of apoptosis
same,mode of cell death,[4],die by oncosis
same,DNA fragments,[4]; 5×10^−7 M overnight,did not
hen egg lysozyme [HEL],T cells in spleen,[5]; 3A9×hybrid MHC class II-MHC class I on null background,a CD4^+ T cell subset missing
same,MHC class II bearing B cells in spleen,[5]; [6],no MHC class II bearing B cells
same,T cells in spleen,[5]; [6],normal T cell numbers
